According to paper PMC4381037 (The FEBS journal, 2009):

Target: T1, His6-RMDPa (Pseudomonas aeruginosa, UniProt Q9HTB6)
T1 sequence (Q9HTB6 2-304 limits assumed): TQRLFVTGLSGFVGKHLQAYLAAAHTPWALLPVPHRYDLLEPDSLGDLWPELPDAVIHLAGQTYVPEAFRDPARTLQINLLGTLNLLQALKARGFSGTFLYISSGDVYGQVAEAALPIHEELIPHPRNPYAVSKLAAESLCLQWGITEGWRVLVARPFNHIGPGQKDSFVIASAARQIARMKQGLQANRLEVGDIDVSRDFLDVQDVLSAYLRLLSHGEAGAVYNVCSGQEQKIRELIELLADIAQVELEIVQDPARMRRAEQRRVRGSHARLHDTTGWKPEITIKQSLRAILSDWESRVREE
Assay: capillary electrophoresis and NMR of product
Assay type: biochemical
Conditions: with GDP-6-deoxy-D-lyxo-hexos-4-ulose; hydride donor; 37 °C, pH 7.5

SMILES: NC(=O)C1=CN([C@@H]2O[C@H](COP(=O)(O)OP(=O)(O)OC[C@H]3O[C@@H](n4cnc5c(N)ncnc54)[C@H](OP(=O)(O)O)[C@@H]3O)[C@@H](O)[C@H]2O)C=CC1 [NADPH]
- capillary electrophoresis and NMR of product: in the presence of excess NADPH, His6-RMDPa catalyzed the conversion
